Source: ChEMBL document CHEMBL3046105, “Synthesis and antihyperlipidemic efficiency of berberine-based HMG-CoA reductase inhibitor” (Med Chem Res, 2012)

Key:
[1] = tested on: Oryctolagus cuniculus; assay: Toxicity in high fat-high cholesterol fed New Zealand Oryctolagus cuniculus (rabbit) assessed as mortality at 15 mg/kg, po for 40 days; type: organism-based; set-up: dose 15 mg/kg, route oral; settings: in vivo, 960 h
[2] = tested on: Oryctolagus cuniculus; assay: Antihyperlipidemic activity in high fat-high cholesterol fed New Zealand Oryctolagus cuniculus (rabbit) assessed as triglyceride level in blood at 15 mg/kg, po for 40 days (reference value: 2.11 +/- 0.43 mmol/l); type: functional
[3] = tested on: Oryctolagus cuniculus; assay: Antihyperlipidemic activity in high fat-high cholesterol fed New Zealand Oryctolagus cuniculus (rabbit) assessed as total cholesterol level in blood at 15 mg/kg, po for 40 days (reference value: 8.89 +/- 0.53 mmol/l); type: functional
[4] = tested on: Oryctolagus cuniculus; assay: Toxicity in high fat-high cholesterol fed New Zealand Oryctolagus cuniculus (rabbit) assessed as body weight at 15 mg/kg, po for 40 days; type: organism-based; set-up: dose 15 mg/kg, route oral; settings: in vivo, 960 h
[5] = Toxicity in Mus musculus Kunming (mouse); type: organism-based; settings: in vivo
[6] = biological target: T1, 3-hydroxy-3-methylglutaryl-coenzyme A reductase (Mus musculus) (UniProt Q01237); assay: Inhibition of HMGR isolated from Mus musculus (mouse) liver assessed as change in NADPH at 8 umol/l by HPLC analysis
T1 sequence (whole entry): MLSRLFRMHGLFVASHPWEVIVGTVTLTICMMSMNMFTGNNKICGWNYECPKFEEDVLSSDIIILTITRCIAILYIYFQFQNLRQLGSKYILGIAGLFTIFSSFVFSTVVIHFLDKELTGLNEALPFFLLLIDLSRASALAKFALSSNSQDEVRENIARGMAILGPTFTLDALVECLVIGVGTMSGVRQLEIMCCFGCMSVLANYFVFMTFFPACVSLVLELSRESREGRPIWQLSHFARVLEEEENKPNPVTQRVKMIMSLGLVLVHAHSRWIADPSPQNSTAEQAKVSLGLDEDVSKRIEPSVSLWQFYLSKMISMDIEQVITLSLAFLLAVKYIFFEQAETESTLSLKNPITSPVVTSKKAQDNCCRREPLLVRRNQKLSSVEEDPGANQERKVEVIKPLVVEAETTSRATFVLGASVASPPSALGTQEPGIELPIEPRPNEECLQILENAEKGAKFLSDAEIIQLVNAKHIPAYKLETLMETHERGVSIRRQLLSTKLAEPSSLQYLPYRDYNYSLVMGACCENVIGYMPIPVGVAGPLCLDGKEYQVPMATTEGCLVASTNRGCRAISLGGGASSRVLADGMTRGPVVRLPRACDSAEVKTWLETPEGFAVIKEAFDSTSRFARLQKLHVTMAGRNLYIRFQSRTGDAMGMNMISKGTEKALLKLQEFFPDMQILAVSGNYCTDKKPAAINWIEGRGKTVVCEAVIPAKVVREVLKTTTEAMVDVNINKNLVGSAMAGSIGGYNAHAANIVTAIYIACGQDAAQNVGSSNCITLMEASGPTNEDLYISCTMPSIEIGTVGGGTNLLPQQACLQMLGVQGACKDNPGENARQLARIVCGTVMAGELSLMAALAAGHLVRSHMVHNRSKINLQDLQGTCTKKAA

[7] = tested on: Oryctolagus cuniculus; assay: Antihyperlipidemic activity in high fat-high cholesterol fed New Zealand Oryctolagus cuniculus (rabbit) assessed as low-density lipoprotein-cholesterol level in blood at 15 mg/kg, po for 40 days (reference value: 3.45 +/- 0.56 mmol/l); type: functional
[8] = tested on: Oryctolagus cuniculus; assay: Antihyperlipidemic activity in high fat-high cholesterol fed New Zealand Oryctolagus cuniculus (rabbit) assessed as high-density lipoprotein-cholesterol level in blood at 15 mg/kg, po for 40 days (reference value: 0.67 +/- 0.22 mmol/l); type: functional
[9] = tested on: Oryctolagus cuniculus; assay: Antihyperlipidemic activity in high fat-high cholesterol fed New Zealand Oryctolagus cuniculus (rabbit) assessed as triglyceride level in blood at 4 mg/kg, po for 40 days (reference value: 2.11 +/- 0.43 mmol/l); type: functional
[10] = tested on: Oryctolagus cuniculus; assay: Antihyperlipidemic activity in high fat-high cholesterol fed New Zealand Oryctolagus cuniculus (rabbit) assessed as low-density lipoprotein-cholesterol level in blood at 4 mg/kg, po for 40 days (reference value: 3.45 +/- 0.56 mmol/l); type: functional
[11] = tested on: Oryctolagus cuniculus; assay: Antihyperlipidemic activity in high fat-high cholesterol fed New Zealand Oryctolagus cuniculus (rabbit) assessed as total cholesterol level in blood at 4 mg/kg, po for 40 days (reference value: 8.89 +/- 0.53 mmol/l); type: functional
[12] = tested on: Oryctolagus cuniculus; assay: Antihyperlipidemic activity in high fat-high cholesterol fed New Zealand Oryctolagus cuniculus (rabbit) assessed as high-density lipoprotein-cholesterol level in blood at 4 mg/kg, po for 40 days (reference value: 0.67 +/- 0.22 mmol/l); type: functional

Compound | Activity [1] | Activity [2] | Activity [3] | Activity [4] | LD50 [5] | inhibition [6] | Activity [7] | Activity [8] | Activity [9] | Activity [10] | Activity [11] | Activity [12]
CCCCCCCCCCCCc1c2c(OC)c(OC)ccc2cc2[n+]1CCc1cc3c(cc1-2)OCO3.[Cl-] [8-DODECYL-BERBERINE CHLORIDE] | Non-toxic | 1.86e+06 nmol/L | 6.04e+06 nmol/L | Non-toxic | 752 mg/kg | 4.2% | 2.98e+06 nmol/L | 720000 nmol/L | – | – | – | –
CCCCCCCCCCCCCCCCCCc1c2c(OC)c(OC)ccc2cc2[n+]1CCc1cc3c(cc1-2)OCO3.[Cl-] [8-OCTADECYL-BERBERINE CHLORIDE] | Non-toxic | 1.6e+06 nmol/L | 2.37e+06 nmol/L | Non-toxic | > 1000 mg/kg | 33% | 2.55e+06 nmol/L | 750000 nmol/L | – | – | – | –
CCCCCCCCc1c2c(OC)c(OC)ccc2cc2[n+]1CCc1cc3c(cc1-2)OCO3.[Cl-] [8-OCTYL-BERBERINE CHLORIDE] | Non-toxic | 1.95e+06 nmol/L | 6.25e+06 nmol/L | Non-toxic | 534 mg/kg | – | 3.06e+06 nmol/L | 700000 nmol/L | – | – | – | –
CCCCCCCCCCCCCCc1c2c(OC)c(OC)ccc2cc2[n+]1CCc1cc3c(cc1-2)OCO3.[Cl-] [8-TETRADECYL-BERBERINE CHLORIDE] | Non-toxic | 1.73e+06 nmol/L | 6.02e+06 nmol/L | Non-toxic | 803 mg/kg | 11.2% | 2.41e+06 nmol/L | 730000 nmol/L | – | – | – | –
COc1ccc2cc3[n+](cc2c1OC)CCc1cc2c(cc1-3)OCO2.[Cl-] [BERBERINE CHLORIDE] | – | 2.02e+06 nmol/L | 7.94e+06 nmol/L | – | 764 mg/kg | – | 3.27e+06 nmol/L | 700000 nmol/L | – | – | – | –
CC[C@H](C)C(=O)O[C@H]1C[C@@H](C)C=C2C=C[C@H](C)[C@H](CC[C@@H]3C[C@@H](O)CC(=O)O3)[C@H]21 [LOVASTATIN] | – | – | – | – | > 1000 mg/kg | 20.2% | – | – | 1.62e+06 nmol/L | 1.85e+06 nmol/L | 2.56e+06 nmol/L | 780000 nmol/L
